Assay results published in patent publication US20220264878A1, “HERBICIDAL COMPOSITION CONTAINING R-TYPE PYRIDYLOXY CARBOXYLIC ACID DERIVATIVE AND USE THEREOF” (Qingdao Kingagroot Chemical Compound Co., Ltd., priority 2019, published 2022).

Tests used:
Type in all cases: in vivo
Alopecurus japonicus = experiment: Post-emergence foliage spray, pot culture, fresh weight inhibition (Tables 151-206; 20 days); conditions: 20 days
Method in brief: (§1)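 Field-collected weeds grown in pots in a greenhouse (20-30° C., natural light, 57-72% RH), 15 per pot, 3 pots × 4 replicates. Single foliar spray at 4-5 leaves (grasses) or 5-6 leaves (broadleaf) with acetone/0.1% Tween-80 dilutions at 450 kg/ha, 0.3 MPa. Above-ground fresh weight inhibition versus solvent blank at 20 days.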

Digitaria sanguinalis = experiment: as above; conditions: 20 days
Method in brief: as §1

Eleusine indica = experiment: as above; conditions: 20 days
Method in brief: as §1

Sinapis arvensis = experiment: as above; conditions: 20 days
Method in brief: as §1

Echinochloa oryzoides [1] = experiment: Post-emergence foliage spray, pot culture, fresh weight inhibition (Tables 1-48, 51-98, 101-148; 24 days)
Method in brief: (§2)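 Pot-grown weeds were thinned to 15 per pot (45 per treatment) and sprayed on foliage at the 5–6-leaf stage for grasses or the 6–7-leaf stage for broadleaves. Agents were dissolved in acetone with 0.1% Tween-80 and applied at 450 kg/ha spray volume and 0.3 MPa. Plants were then kept in a greenhouse. Above-ground fresh weight of survivors, with dead plants counted as zero, gave inhibition versus a solvent/emulsifier blank.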

Echinochloa oryzoides [2] = experiment: Soil sealing treatment, pot culture, fresh weight inhibition (Tables 149, 150)
Procedure: A method for investigating absolute number was employed, wherein whole seedlings of survival weeds were cut off with a blade along the soil surface, and the fresh weight of the weeds was weighed with an analytical balance. For dead weeds, the fresh weight thereof was zero.
Theoretical fresh weight inhibition rate of a combination of two active ingredients in each group was calculated by the Gowing method (E0=X+Y−X*Y/100), and then compared with an actually measured inhibition rate (E), thereby effect of the combination (hereafter referred to as combined effect) on weeds was evaluated: the value of E-E0, which was greater than 10%, corresponded to a synergistic effect, the value of E-E0, which was less than −10%, corresponded to an antagonistic effect, and the value of E-E0, which was from −10% to 10%, corresponded to an additional effect. […] Wherein, in the formula, X represented the fresh weight inhibition rate of the active ingredient A in a dosage of P, and Y represented the fresh weight inhibition rate of the active ingredient B in a dosage of Q.
Echinochloa crusgalli var zelayensis were collected in Huai'an of Jiangsu Province; Echinochloa caudate were collected in Pingluo of Ningxia Province; Echinochloa oryzoides were collected in Qiqiha'er of Heilongjiang Province.
The culture was carried out in a controllable sunlight greenhouse at 20 to 30° C., in natural light, and relative humidity of 57% to 72%. […] The test soil was placed quantitatively to ¾ of the pots and then watered from the bottom of the pots to completely wet the soil to saturation. The pretreated test weed seeds were uniformly sowed on the surface, then covered with 0.5-2 cm soil according to the seed size, and ready-for use 24 hours after sowing.
The technical materials were all dissolved in acetone, and diluted with an aqueous solution containing 0.1% emulsifier T-80. The dilution is performed as required.
A ratio of A to the active ingredient B and amounts thereof in each group depends on the characteristics and toxicity of the two agents, as well as the main application purpose of a corresponding formulation. Based on the pre-tests in this study, the dosage of A and the active ingredient B applied alone and in combination were shown in the tables. Water containing the solvent and emulsifier same with the above groups but free of the agents was used as a blank control.
3 pots with 30 weed seeds per pot were treated in one treatment with 4 replications per treatment.
The pots which were sowed and mulched were evenly placed on a platform with an area of 0.5 m^2, and a solution of agents was sprayed on soil surface thereof by the 3WP-2000-type walking spray tower at a dosage of […] and at a spray pressure of 0.3 MPa. After all the solution was sprayed, the valve was closed. After 30 seconds, the door of the spray tower was opened, and the nutritional bowl was taken out. Then the valve was opened, and the spray tube was cleaned by spraying 50 ml of water.
This section was same as the section 4) in the post-emergence treatment by performing foliage spray, and was not repeated herein.

Capsella bursa-pastoris = experiment: Post-emergence foliage spray, pot culture, fresh weight inhibition (Tables 151-206; 20 days); conditions: 20 days
Method in brief: (§3)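 Pre-germinated seeds (25° C soak 6 h, 28° C dark) grown in pots, thinned to 15 per pot; foliage-sprayed at 4~5-leaf (grasses) or 5~6-leaf (broadleaf) stage, 450 kg/ha spray volume, 0.3 MPa. Agents in acetone diluted with 0.1% Tween-80 water; solvent blank control. Above-ground fresh weight weighed, dead weeds scored zero.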

Amaranthus retroflexus = experiment: as above; conditions: 20 days
Method in brief: as §3

Galium aparine L. = experiment: Post-emergence foliage spray, pot culture, fresh weight inhibition (Tables 1-48, 51-98, 101-148; 24 days); conditions: 24 days
Method in brief: as §2

Stellaria media = experiment: as above; conditions: Table 105
Method in brief: as §2

Malachium aquaticum = experiment: as above
Method in brief: as §2

C[C@@H](Oc1nc(F)c(Cl)c(N)c1Cl)C(=O)[O-].[K+] [Compound A4, A1 potassium salt]
Control effect (%) of A applied alone in corresponding dose (Alopecurus japonicus; A 75 g a.i./ha): 24.9% | Control effect (%) of A applied alone in corresponding dose (Alopecurus japonicus; A 150 g a.i./ha): 47.2% | Control effect (%) of A applied alone in corresponding dose (Digitaria sanguinalis; A 75 g a.i./ha): 22.2% | Control effect (%) of A applied alone in corresponding dose (Digitaria sanguinalis; A 150 g a.i./ha): 56.4% | Control effect (%) of A applied alone in corresponding dose (Eleusine indica; A 75 g a.i./ha): 38.5% | Control effect (%) of A applied alone in corresponding dose (Eleusine indica; A 150 g a.i./ha): 69.2% | Control effect (%) of A applied alone in corresponding dose (Sinapis arvensis; A 75 g a.i./ha): 41.1% | Control effect (%) of A applied alone in corresponding dose (Sinapis arvensis; A 150 g a.i./ha): 65.9% | Control effect (%) of A applied alone in corresponding dose (Echinochloa oryzoides [1]; A 75 g a.i./ha): 52.6% | Control effect (%) of A applied alone in corresponding dose (Echinochloa oryzoides [1]; A 150 g a.i./ha): 74.7% | Control effect (%) of A applied alone in corresponding dose (Echinochloa oryzoides [1]; Table 101, 75 g a.i./ha): 52.6% | Control effect (%) of A applied alone in corresponding dose (Echinochloa oryzoides [1]; Table 101, 150 g a.i./ha): 74.7% | Control effect (%) of A applied alone in corresponding dose (Echinochloa oryzoides [1]; Table 102, 75 g a.i./ha): 52.6% | Control effect (%) of A applied alone in corresponding dose (Echinochloa oryzoides [1]; Table 102, 150 g a.i./ha): 74.7% | Control effect (%) of A applied alone in corresponding dose (Echinochloa oryzoides [1]; Table 104, 75 g a.i./ha): 52.6% | Control effect (%) of A applied alone in corresponding dose (Echinochloa oryzoides [1]; Table 104, 150 g a.i./ha): 74.7% | Control effect (%) of A applied alone in corresponding dose (Echinochloa oryzoides [1]; Table 106, 75 g a.i./ha): 52.6% | Control effect (%) of A applied alone in corresponding dose (Echinochloa oryzoides [1]; Table 106, 150 g a.i./ha): 74.7% | Control effect (%) of A applied alone in corresponding dose (Echinochloa oryzoides [1]; Table 107, 75 g a.i./ha): 52.6% | Control effect (%) of A applied alone in corresponding dose (Echinochloa oryzoides [1]; Table 107, 150 g a.i./ha): 74.7% | Control effect (%) of A applied alone in corresponding dose (Echinochloa oryzoides [1]; Table 108, 75 g a.i./ha): 52.6% | Control effect (%) of A applied alone in corresponding dose (Echinochloa oryzoides [1]; Table 108, 150 g a.i./ha): 74.7% | Control effect (%) of A applied alone in corresponding dose (Echinochloa oryzoides [1]; Table 109, 75 g a.i./ha): 52.6% | Control effect (%) of A applied alone in corresponding dose (Echinochloa oryzoides [1]; Table 109, 150 g a.i./ha): 74.7% | Control effect (%) of A applied alone in corresponding dose (Echinochloa oryzoides [1]; Table 110, 75 g a.i./ha): 52.6% | Control effect (%) of A applied alone in corresponding dose (Echinochloa oryzoides [1]; Table 110, 150 g a.i./ha): 74.7% | Control effect (%) of A applied alone in corresponding dose (Echinochloa oryzoides [2]; A 75 g a.i./ha): 18.9% | Control effect (%) of A applied alone in corresponding dose (Echinochloa oryzoides [2]; A 150 g a.i./ha): 42.5% | Control effect (%) of A applied alone in corresponding dose (Capsella bursa-pastoris; A 75 g a.i./ha): 44.2% | Control effect (%) of A applied alone in corresponding dose (Capsella bursa-pastoris; A 150 g a.i./ha): 67.2% | Control effect (%) of A applied alone in corresponding dose (Amaranthus retroflexus; A 75 g a.i./ha): 26.7% | Control effect (%) of A applied alone in corresponding dose (Amaranthus retroflexus; A 150 g a.i./ha): 57.2%

COc1ncc(F)c2nc(S(=O)(=O)Nc3c(F)cccc3F)nn12 [florasulam]
Control effect (%) of B applied alone in corresponding dose (Galium aparine L.; B 0.375 g a.i/ha): 4.8% | Control effect (%) of B applied alone in corresponding dose (Galium aparine L.; B 0.75 g a.i/ha): 20.6% | Control effect (%) of B applied alone in corresponding dose (Galium aparine L.; B 1.5 g a.i/ha): 56.3% | Control effect (%) of B applied alone in corresponding dose (Galium aparine L.; B 3.0 g a.i/ha): 76.2% | Control effect (%) of B applied alone in corresponding dose (Stellaria media; 0.375 g a.i./ha): 6.8% | Control effect (%) of B applied alone in corresponding dose (Stellaria media; 0.75 g a.i./ha): 22.3% | Control effect (%) of B applied alone in corresponding dose (Stellaria media; 1.5 g a.i./ha): 56.9% | Control effect (%) of B applied alone in corresponding dose (Stellaria media; 3.0 g a.i./ha): 76.6% | Control effect (%) of B applied alone in corresponding dose (Malachium aquaticum; florasulam 0.375 g a.i./ha): 3.6% | Control effect (%) of B applied alone in corresponding dose (Malachium aquaticum; florasulam 0.75 g a.i./ha): 17.4% | Control effect (%) of B applied alone in corresponding dose (Malachium aquaticum; florasulam 1.5 g a.i./ha): 56.4% | Control effect (%) of B applied alone in corresponding dose (Malachium aquaticum; florasulam 3.0 g a.i./ha): 77.6%
